Results published in patent US5873359A, “Methods and devices for treating pulmonary vasoconstriction and asthma” (The General Hospital Corporation, priority 1994, dated 1999).

Tests used:
[1] = system: pulmonary hypertension in ARDS; test: Inhaled NO versus i.v. prostacyclin in adult with ARDS (first subject); assay type: in vivo, human; conditions: for QVA /QT: sulphur hexafluoride, from 38%
Experimental: First subject. The patient had suffered for three weeks from adult respiratory distress syndrome (ARDS) due to aspiration pneumonia. There was diffuse pulmonary edema and a large QVA /QT (30%). After 21 days of venovenous extracorporeal membrane oxygenator support (3 liters/min blood flow), the mean PAP was 55 mm Hg.
The short term effects of inhaled nitric oxide were compared with those of i.v. prostacyclin (PGI2; 5ng/kg/min). Mean pulmonary arterial pressure (PAP), right ventricular ejection fraction (RVEF) and gas exchange variables were evaluated. RVEF was assessed by thermodilution, and gas exchange alterations were analyzed using the multiple inert gas elimination technique (MIGET). MIGET and RVEF date were obtained on two different occasions. Ventilator settings were tidal volume 6 ml/kg, respiratory rate 14/min, Fi O2 0.4-0.48 and 5 cm H2 O of PEEP (positive end expiratory pressure).

[2] = system: hypoxia-induced pulmonary vasoconstriction; test: 40 ppm NO in healthy volunteers breathing 12% O2 (hypoxic, vasoconstricted lung); assay type: in vivo, human
Experimental: The effects of breathing 40 ppm NO were studied in five awake, healthy human volunteer subjects inhaling various gas mixtures for 10 min periods, with measurements starting at 6 min.

[3] = system: heparin-protamine-induced elevated PAP and PVR; assay type: in vivo, sheep
Experimental: The heparin-protamine reaction was induced in these nine sheep by first administering heparin (200 U/kg; Elkins-Sinn, Cherry Hill, N.J.) followed five minutes later (at time zero) by protamine (2 mg/kg; Elkins-Sinn). Each of these sheep also served as a control. Six additional sheep were given an intravenous infusion of sodium nitroprusside (40 μg/kg/min body weight; Elkins-Sinn) while breathing air (data not shown).

normal bronchial tone = test: NO effects on normal bronchial tone; assay type: in vivo, Hartley strain guinea pigs; conditions: 300 ppm NO, without methacholine infusion (FIG. 8)
Experimental: Male Hartley strain guinea pigs (300-440g body wt) were anesthetized with α-chloralose (50 mg/kg) and urethane (500 mg/kg) (Drazen et al., J. Appl. Physiol. 48:613-618, 1980). A tracheostomy was performed, and the animals were intubated with a tubing adaptor (ID 1.65 mm) and ventilated with a small animal ventilator (Harvard Apparatus, a division of Ealing Scientific, Natick, Mass.) at 8 ml/kg and 60 breaths/min. A jugular vein was cannulated for intravenous administration of drugs. The chest was opened by bilateral excision of a portion of the ribs anteriorly so that the lungs were exposed to atmospheric pressure (Shore and Drazen, J. Appl. Physiol. 67:2504-2511, 1989). A positive end expiratory pressure of 3-4 cmH2 O was provided.
Guinea pigs were then placed inside a plethysmograph (Amdur and Mead, Am. J. Physiol. 192:363-368, 1958), that was connected to a large reservoir containing copper mesh to maintain the plethysmograph isothermal. Plethysmograph pressure was measured with a differential pressure transducer (Celesco, Canoga Park, Calif.); the opposite side of this transducer was connected to a similar reservoir. Pressure at the airway opening was measured from a side tap in the tracheal canula. Transpulmonary pressure was measured with a differential pressure transducer (Celesco) as the difference between airway opening pressure and the pressure inside the plethysmograph. […]

[N]=O [NO, nitric oxide] was tested, and the “decrease of mean PAP” value ([1]; 18 ppm NO in oxygen) was 12-14 mm Hg, the “mean PAP” value ([1]; 18 ppm NO in oxygen) was 38-42 mm Hg and the “reduction of PVR” value ([1]; 18 ppm NO in oxygen) was 44%. The wedge pressure ([1]; 18 ppm NO in oxygen, remaining constant) was about 15 mm Hg, the cardiac output ([1]; 18 ppm NO in oxygen, unchanged) was about 7 L/min and the “QVA /QT” value ([1]; 18 ppm NO) was 26%. The “QVA /QT” value ([1]; 36 ppm NO) was 33%, the additional vasodilation ([1]; increasing NO concentration to 36 ppm) was 2-5 mm Hg and the “change of systemic arterial pressure” value ([1]; inhaled NO) was “no change of systemic arterial pressure”. The “PAP and RVEF” value ([1]; inhaled NO and i.v. PGI2, text) was “lowered PAP and improved RVEF”, the “PaO2, right-to-left shunt and VD /VT” value ([1]; inhaled NO, in contrast to PGI2) was “increased PaO2 and decreased right-to-left shunt and VD /VT” and the MAP ([1]; occasion #1, NO 18 ppm) was 78 mm Hg. It also gave a PAP ([1]; occasion #1, NO 18 ppm) of 42 mm Hg, a PCWP ([1]; occasion #1, NO 18 ppm) of 15 mm Hg and a PaO2 ([1]; occasion #1, NO 18 ppm) of 146 torr. For the same molecule, the “QA /QT” value ([1]; occasion #1, NO 18 ppm) was 26%, the “VD /VT” value ([1]; occasion #1, NO 18 ppm) was 43% and the “low VD /Q” value ([1]; occasion #1, NO 18 ppm) was 1%. It also gave an MAP ([1]; occasion #1, NO 36 ppm) of 75 mm Hg, a PAP ([1]; occasion #1, NO 36 ppm) of 37 mm Hg and a PCWP ([1]; occasion #1, NO 36 ppm) of 15 mm Hg. For the same molecule, the PaO2 ([1]; occasion #1, NO 36 ppm) was 127 torr, the “QA /QT” value ([1]; occasion #1, NO 36 ppm) was 33% and the “VD /VT” value ([1]; occasion #1, NO 36 ppm) was 40%. The “low VD /Q” value ([1]; occasion #1, NO 36 ppm) was 0%, the MAP ([1]; occasion #2, NO 18 ppm) was 88 mm Hg and the PAP ([1]; occasion #2, NO 18 ppm) was 38 mm Hg. For the same molecule, the PCWP ([1]; occasion #2, NO 18 ppm) was 14 mm Hg, the PaO2 ([1]; occasion #2, NO 18 ppm) was 127 torr and the RVEF ([1]; occasion #2, NO 18 ppm) was 36%. For the same molecule, the MAP ([1]; occasion #2, NO 36 ppm) was 86 mm Hg, the PAP ([1]; occasion #2, NO 36 ppm) was 36 mm Hg and the PCWP ([1]; occasion #2, NO 36 ppm) was 12 mm Hg. For the same molecule, the PaO2 ([1]; occasion #2, NO 36 ppm) was 113 torr, the RVEF ([1]; occasion #2, NO 36 ppm) was 39% and the CO ([2]; 12% O2 + 40 ppm NO, n = 5) was 8.37 ± 1.68 L/min. The CVP ([2]; 12% O2 + 40 ppm NO, n = 5) was 5.2 ± 2.6 mmHg, the MAP ([2]; 12% O2 + 40 ppm NO, n = 5) was 86.0 ± 5.7 mmHg and the PCWP ([2]; 12% O2 + 40 ppm NO, n = 5) was 8.5 ± 2.2 mmHg. The PVR ([2]; 12% O2 + 40 ppm NO, n = 5) was 0.62 mmHg · min/l, the PaCO2 ([2]; 12% O2 + 40 ppm NO, n = 5) was 34 ± 5 mmHg and the PaO2 ([2]; 12% O2 + 40 ppm NO, n = 5) was 45 ± 5 mmHg. The SaO2 ([2]; 12% O2 + 40 ppm NO, n = 5) was 83.9 ± 5.7%, the PAP ([2]; 12% O2 + 40 ppm NO, n = 5, p < 0.01 vs previous situation) was 13.7 ± 1.7 mmHg and the “reversal of hypoxia-induced pulmonary vasoconstriction” value ([2]; 40 ppm NO, 12% v/v oxygen) was “reversed completely”. The systemic hypotension ([3]; 180 ppm inhaled NO vs SNP) was “without the latter drug's propensity to cause marked systemic hypotension”, the “lowering of heparin-protamine-induced PAP” value ([3]; 180 ppm inhaled NO vs SNP 40 μg/kg/min) was “comparable to 40 μg/kg/min SNP infusion” and the “prevention of elevated PAP and PVR” value ([3]; 180 ppm inhaled NO, nine awake sheep) was “prevent the elevated PAP and PVR”. The baseline bronchomotor tone (normal bronchial tone) was “decreased the baseline bronchomotor tone”.
